Experimental data from patent publication US6075006A, “Soluble tachykinin antagonists, the preparation and use thereof” (Centro Interuniversitario di Ricera Sui Peptidi …, priority 1996, dated 2000).
In brackets after ≈: the same amount, converted by molar mass. Like-named read-outs stand apart in the source and are kept apart here. Bridge positions count the residues as written; N and C are the ends. Square brackets hold non-standard residues; d marks the D form. Peptide text beside a SMILES is read from it. * marks the point of attachment. βGal = OC[C@H]1O[C@@H](*)[C@H](O)[C@@H](O)[C@H]1O; X1 = OC[C@H]1O[C@@H](N*)[C@H](O)[C@@H](O)[C@H]1O; Dap = NC[C@H](N)C(=O)O

How the values were obtained:
Water solubility = format: physicochemical; conditions: table of example 2
[1] = water solubility of known insoluble antagonists, stated in the description; cited from earlier work

| Compound | Solubility (Water solubility) [µg/mL] | Solubility [1] [µg/mL] |
| --- | --- | --- |
| CC(C)C[C@@H]1NC(=O)[C@@H]2CNC(=O)C[C@H](NC(=O)[C@H](CO[C@@H]3O[C@H](CO)[C@H](O)[C@H](O)[C@H]3O)NC1=O)C(=O)N[C@@H](Cc1c[nH]c3ccccc13)C(=O)N[C@@H](Cc1ccccc1)C(=O)N2 [Comparative example 1, cyclo[Ser^1 (β-D-Gal)-Asp^2 -Trp^3 -Phe^4 -Dap^5 -Leu^6]cyclo(2β-5β)] (cyclo(DWF[Dap]LS(βGal)); lactam 1-4) | 2.020 (≈ 2.3 µM) | – |
| CC(C)C[C@@H]1NC(=O)[C@@H]2CNC(=O)C[C@H](NC(=O)[C@H](CS[C@@H]3O[C@H](CO)[C@H](O)[C@H](O)[C@H]3O)NC1=O)C(=O)N[C@@H](Cc1c[nH]c3ccccc13)C(=O)N[C@@H](Cc1ccccc1)C(=O)N2 [Example 1, cyclo[Cys^1 (β-D-Gal)-Asp^2 -Trp^3 -Phe^4 -Dap^5 -Leu^6]cyclo(2β-5β)] (cyclo(C(βGal)DWF[Dap]L); lactam 2-5) | 1.800 (≈ 2.01 µM) | – |
| CSCC[C@@H]1NC(=O)[C@H](CC(C)C)NC(=O)[C@@H]2CNC(=O)C[C@H](NC1=O)C(=O)N[C@@H](Cc1c[nH]c3ccccc13)C(=O)N[C@@H](Cc1ccccc1)C(=O)N2 [MEN 10627] (cyclo(DWF[Dap]LM); lactam 1-4) | 15 (≈ 19.7 µM) | 15 (≈ 19.7 µM) |
| CC(C)C[C@@H]1NC(=O)[C@@H]2CNC(=O)C[C@H](NC(=O)[C@H](CC(=O)N[C@@H]3O[C@H](CO)[C@H](O)[C@H](O)[C@H]3O)NC1=O)C(=O)N[C@@H](Cc1c[nH]c3ccccc13)C(=O)N[C@@H](Cc1ccccc1)C(=O)N2 [Comparative example 2, cyclo[Asn^1 (β-D-Gal)-Asp^2 -Trp^3 -Phe^4 -Dap^5 -Leu^6]cyclo(2β-5β)] (cyclo(D(X1)DWF[Dap]L); lactam 2-5) | 1.980 (≈ 2.19 µM) | – |
